Measured values published in patent US11834453B2, “Substituted pyrimido[5,4-d]pyrimidines as HER2 inhibitors” (Array BioPharma Inc., priority 2020, dated 2023).

Legend:
[1] = biological target: ErbB2 insYVMA (HER2-YVMA, SEQ ID NO: 2) (Homo sapiens, UniProt P04626, INS775YVMA/P1170A); assay: biochemical; conditions: ErbB2 insYVMA enzyme assay; read-out: Assay 1 IC50
[2] = biological target: ErbB2 with Exon 20 YVMA insertion (HER2-YVMA) (Homo sapiens (Human), UniProt P04626, INS775YVMA); assay: Cellular phosphorylation assay, constitutive ErbB2 phosphorylation (Y1196) in engineered NIH 3T3 cells, Assay 4; type: cell-based
Method in brief: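 Engineered NIH 3T3 cells expressing HER2-YVMA treated with compounds 1 h at 37 °C, then formaldehyde-fixed and methanol-permeabilized. pErbB2 Y1196 detected by in-cell infrared immunofluorescence, normalized to GAPDH. IC50 from the normalized curves.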

ErbB2 WT = ErbB2 WT (Homo sapiens (Human), UniProt P04626); assay: ErbB enzyme assay (CisBio HTRF KinEASE-TK), Assay 2; type: biochemical
Method in brief: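 ErbB2 phosphorylates 250 nM biotin-TK substrate at 1 mM ATP in 25 mM HEPES pH 7.4, 10 mM MgCl2, 0.01% Triton X-100 and 2% DMSO, for 30 min at 22 °C. Product is detected by HTRF with Sa-XL665 and TK-Ab-Cryptate. Percent of control is set by DMSO-only wells and pre-quenched wells.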

EGFR wild type (EGFR WT) = EGFR wild type (EGFR WT) (Homo sapiens (Human), UniProt P00533); assay: Cellular phosphorylation assay, EGF-stimulated EGFR phosphorylation in engineered NIH 3T3 cells, Phospho-EGFR DuoSet IC ELISA, Assay 5; type: cell-based
Method in brief: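 NIH 3T3 cells expressing EGFR WT (20,000/well, attached overnight) were exposed to serially diluted compound for 1 h at 37 °C, then stimulated with 100 ng/ml rEGF for 10 min. Phospho-EGFR in lysates measured by sandwich ELISA optical density; IC50 from curves.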

EGFR = EGFR (Homo sapiens (Human), UniProt P00533); assay: ErbB enzyme assay (CisBio HTRF KinEASE-TK), Assay 3; type: biochemical
Method in brief: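 Kinase incubated 30 min at 22 °C with 250 nM biotinylated TK substrate, 1 mM ATP and serially diluted compound in 25 mM HEPES pH 7.4, 10 mM MgCl2, 0.01% Triton X-100, 2% DMSO. Phosphorylation read by HTRF (Sa-XL665/TK-Ab-Cryptate); IC50 from 4-parameter fit of percent of control.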

Chain of ErbB2 WT (P04626 23-1255): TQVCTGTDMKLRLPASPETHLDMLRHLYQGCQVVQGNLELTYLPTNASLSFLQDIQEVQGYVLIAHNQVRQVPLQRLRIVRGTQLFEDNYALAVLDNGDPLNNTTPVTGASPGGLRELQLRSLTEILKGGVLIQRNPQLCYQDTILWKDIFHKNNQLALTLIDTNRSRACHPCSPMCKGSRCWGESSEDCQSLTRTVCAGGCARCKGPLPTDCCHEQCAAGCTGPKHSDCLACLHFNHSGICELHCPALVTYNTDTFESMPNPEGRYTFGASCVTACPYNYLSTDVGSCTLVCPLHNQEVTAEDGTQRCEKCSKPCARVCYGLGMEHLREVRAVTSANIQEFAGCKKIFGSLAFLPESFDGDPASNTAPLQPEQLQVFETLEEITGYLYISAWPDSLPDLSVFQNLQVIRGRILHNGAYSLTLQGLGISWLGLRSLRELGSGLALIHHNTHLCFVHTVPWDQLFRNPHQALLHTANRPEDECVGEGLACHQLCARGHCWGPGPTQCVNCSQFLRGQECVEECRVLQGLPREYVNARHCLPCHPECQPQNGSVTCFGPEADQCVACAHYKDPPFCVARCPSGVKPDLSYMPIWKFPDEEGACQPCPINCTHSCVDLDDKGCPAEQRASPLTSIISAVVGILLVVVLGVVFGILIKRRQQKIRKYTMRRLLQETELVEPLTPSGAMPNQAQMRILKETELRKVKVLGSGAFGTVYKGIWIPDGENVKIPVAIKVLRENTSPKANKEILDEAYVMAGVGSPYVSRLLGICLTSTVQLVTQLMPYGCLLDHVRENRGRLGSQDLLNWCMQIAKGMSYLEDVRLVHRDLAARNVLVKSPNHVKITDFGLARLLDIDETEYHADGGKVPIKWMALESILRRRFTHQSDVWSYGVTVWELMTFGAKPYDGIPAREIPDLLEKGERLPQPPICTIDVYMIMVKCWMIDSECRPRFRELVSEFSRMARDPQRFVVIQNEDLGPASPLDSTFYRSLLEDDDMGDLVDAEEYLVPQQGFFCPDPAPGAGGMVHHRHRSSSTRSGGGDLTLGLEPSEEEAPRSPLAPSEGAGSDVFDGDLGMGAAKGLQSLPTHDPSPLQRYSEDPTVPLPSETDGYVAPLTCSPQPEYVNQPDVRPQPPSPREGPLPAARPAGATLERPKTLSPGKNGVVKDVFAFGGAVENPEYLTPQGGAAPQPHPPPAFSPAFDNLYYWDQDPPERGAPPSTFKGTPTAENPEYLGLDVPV
Chain of ErbB2 insYVMA (HER2-YVMA, SEQ ID NO: 2) (P04626 with tags, fused parts or gaps INS775YVMA/P1170A limits assumed): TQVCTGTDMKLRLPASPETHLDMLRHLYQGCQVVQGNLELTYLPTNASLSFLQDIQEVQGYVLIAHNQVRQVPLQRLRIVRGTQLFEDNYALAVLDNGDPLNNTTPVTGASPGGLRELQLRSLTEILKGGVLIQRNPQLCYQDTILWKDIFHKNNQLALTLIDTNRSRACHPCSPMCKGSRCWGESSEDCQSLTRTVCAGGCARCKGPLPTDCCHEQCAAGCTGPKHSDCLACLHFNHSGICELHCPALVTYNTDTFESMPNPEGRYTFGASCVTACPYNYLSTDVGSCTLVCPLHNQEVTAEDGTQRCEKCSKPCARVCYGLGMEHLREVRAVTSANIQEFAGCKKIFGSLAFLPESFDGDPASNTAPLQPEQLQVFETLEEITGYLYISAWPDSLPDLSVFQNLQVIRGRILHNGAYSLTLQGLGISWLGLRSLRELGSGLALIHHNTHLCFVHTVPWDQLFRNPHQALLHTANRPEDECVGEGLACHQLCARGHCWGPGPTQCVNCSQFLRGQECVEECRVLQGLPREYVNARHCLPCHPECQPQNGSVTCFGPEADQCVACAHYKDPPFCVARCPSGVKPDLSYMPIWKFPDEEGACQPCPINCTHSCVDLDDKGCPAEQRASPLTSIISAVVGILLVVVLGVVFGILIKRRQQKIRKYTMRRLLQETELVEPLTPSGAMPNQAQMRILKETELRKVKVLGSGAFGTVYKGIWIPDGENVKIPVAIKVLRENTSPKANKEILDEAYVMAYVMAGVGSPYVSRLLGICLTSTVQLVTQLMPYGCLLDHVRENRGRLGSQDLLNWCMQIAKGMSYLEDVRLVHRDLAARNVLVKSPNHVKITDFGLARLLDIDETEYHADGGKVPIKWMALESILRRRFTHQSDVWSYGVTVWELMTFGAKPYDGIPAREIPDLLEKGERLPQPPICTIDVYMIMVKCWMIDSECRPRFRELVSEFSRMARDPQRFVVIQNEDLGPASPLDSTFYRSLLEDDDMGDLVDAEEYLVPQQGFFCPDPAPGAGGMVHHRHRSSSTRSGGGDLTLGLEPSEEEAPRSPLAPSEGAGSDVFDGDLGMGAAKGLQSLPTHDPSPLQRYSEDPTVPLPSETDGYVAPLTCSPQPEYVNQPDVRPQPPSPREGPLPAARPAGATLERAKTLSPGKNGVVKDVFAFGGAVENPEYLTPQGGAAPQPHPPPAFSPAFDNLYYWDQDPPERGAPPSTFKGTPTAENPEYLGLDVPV
Chain of ErbB2 with Exon 20 YVMA insertion (HER2-YVMA) (P04626 other isoform, or with tags, fused parts or gaps ins YVMA behind 775): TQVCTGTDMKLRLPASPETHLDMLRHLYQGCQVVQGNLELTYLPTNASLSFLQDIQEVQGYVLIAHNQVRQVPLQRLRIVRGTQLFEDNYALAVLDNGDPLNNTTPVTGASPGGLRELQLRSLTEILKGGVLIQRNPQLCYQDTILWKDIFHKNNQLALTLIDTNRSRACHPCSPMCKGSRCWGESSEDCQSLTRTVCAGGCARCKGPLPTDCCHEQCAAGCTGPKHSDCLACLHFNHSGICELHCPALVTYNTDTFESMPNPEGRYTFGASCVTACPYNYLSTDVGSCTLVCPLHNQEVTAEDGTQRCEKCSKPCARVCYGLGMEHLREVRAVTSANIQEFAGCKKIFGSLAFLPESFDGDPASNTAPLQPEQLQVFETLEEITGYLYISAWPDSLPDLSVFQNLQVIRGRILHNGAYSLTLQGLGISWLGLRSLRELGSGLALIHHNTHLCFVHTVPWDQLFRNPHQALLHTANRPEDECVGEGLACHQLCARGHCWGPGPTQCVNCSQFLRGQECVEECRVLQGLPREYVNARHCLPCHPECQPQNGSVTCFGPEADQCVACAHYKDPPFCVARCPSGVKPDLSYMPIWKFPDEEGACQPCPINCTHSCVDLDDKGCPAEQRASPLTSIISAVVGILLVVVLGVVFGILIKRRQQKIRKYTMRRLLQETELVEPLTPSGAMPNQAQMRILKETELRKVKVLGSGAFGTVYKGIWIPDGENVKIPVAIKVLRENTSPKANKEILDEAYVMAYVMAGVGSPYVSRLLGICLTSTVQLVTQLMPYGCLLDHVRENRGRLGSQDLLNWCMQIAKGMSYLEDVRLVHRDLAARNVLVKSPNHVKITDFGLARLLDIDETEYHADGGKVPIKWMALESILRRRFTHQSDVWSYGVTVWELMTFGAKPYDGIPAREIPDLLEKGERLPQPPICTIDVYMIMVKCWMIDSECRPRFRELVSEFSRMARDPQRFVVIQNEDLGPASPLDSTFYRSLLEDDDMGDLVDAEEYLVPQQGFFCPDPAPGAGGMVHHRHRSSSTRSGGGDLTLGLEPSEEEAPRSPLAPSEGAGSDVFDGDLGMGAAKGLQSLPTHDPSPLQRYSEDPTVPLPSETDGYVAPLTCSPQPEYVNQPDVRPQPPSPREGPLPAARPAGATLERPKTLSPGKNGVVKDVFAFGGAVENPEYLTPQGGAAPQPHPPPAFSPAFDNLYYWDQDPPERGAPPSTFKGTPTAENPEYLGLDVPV
Chain of EGFR wild type (EGFR WT) (P00533 25-1210): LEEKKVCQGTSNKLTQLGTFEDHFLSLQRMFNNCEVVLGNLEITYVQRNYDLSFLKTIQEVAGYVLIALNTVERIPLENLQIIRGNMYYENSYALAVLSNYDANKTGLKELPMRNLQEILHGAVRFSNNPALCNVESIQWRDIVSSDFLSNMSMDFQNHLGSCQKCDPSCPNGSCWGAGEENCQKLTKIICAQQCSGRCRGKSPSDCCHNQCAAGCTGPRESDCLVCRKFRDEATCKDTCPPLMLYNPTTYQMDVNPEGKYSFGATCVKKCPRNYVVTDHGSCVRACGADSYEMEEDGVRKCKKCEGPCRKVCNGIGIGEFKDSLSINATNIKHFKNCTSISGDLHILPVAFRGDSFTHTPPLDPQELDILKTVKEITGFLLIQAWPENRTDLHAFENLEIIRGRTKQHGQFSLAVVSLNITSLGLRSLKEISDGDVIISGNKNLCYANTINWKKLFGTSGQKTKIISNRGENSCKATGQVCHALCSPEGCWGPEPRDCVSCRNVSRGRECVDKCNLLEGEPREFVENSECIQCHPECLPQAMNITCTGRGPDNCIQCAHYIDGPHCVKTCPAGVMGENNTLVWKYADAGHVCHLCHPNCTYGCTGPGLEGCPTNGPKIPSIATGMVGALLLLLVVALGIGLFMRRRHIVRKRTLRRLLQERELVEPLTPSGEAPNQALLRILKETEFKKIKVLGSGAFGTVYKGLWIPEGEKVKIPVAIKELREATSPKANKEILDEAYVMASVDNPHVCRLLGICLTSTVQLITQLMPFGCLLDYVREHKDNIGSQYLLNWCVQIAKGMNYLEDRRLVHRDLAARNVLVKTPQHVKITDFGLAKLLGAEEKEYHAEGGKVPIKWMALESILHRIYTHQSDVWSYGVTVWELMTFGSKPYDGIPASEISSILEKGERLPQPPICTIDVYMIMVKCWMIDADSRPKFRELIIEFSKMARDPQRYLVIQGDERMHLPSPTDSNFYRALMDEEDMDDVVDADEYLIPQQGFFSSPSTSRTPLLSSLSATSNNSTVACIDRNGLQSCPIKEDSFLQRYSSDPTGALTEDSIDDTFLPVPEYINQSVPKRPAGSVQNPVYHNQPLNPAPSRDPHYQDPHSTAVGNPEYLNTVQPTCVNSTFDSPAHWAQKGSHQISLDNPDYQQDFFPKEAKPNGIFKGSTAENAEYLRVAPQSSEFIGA

SMILES	IC50 [1] [nM]	IC50 [2] [nM]	IC50 (ErbB2 WT) [nM]	IC50 (EGFR wild type (EGFR WT)) [nM]	IC50 (EGFR) [nM]
Cc1cc(Nc2ncnc3cnc(N4CC[C@H](C(F)F)C4)nc23)ccc1Oc1ccn2ncnc2c1 [Example 359]	11.7	278	32.7	≥ 5000	≥ 10000
Cc1cc(Nc2ncnc3cnc(N4CC[C@H](OC(F)F)C4)nc23)ccc1Oc1ccn2ncnc2c1 [Example 361]	26.4	312	39.2	≥ 5000	7480
Cc1cc(Nc2ncnc3cnc(NC4=NC(C)(C)CO4)nc23)ccc1Oc1ccn2ncnc2c1 [Example 362]	26.3	1260	32.1	≥ 5000	3390
Cc1cc(Nc2ncnc3cnc(N4C[C@@H]5[C@H](C4)[C@@H]4CC[C@H]5O4)nc23)ccc1Oc1ccc2c(c1)ncn2C [Example 363]	26.1	26.2	72.4	≥ 5000	≥ 10000
Cc1cc(Nc2ncnc3cnc(N(C)CC(C)(C)CO)nc23)ccc1Oc1ccc2c(c1)ncn2C [Example 364]	32.8	25.7	29.5	≥ 5000	2680
Cc1cc(Nc2ncnc3cnc(N4CC[C@](C)(O)C4)nc23)ccc1Oc1ccn2ncnc2c1 [Example 365]	38.4	132	81.8	≥ 5000	7570
Cc1cc(Nc2ncnc3cnc(N(C)[C@H]4C[C@H](O)C4)nc23)ccc1Oc1ccn2ncnc2c1 [Example 366]	8.3	76.6	6.7	≥ 5000	303
N#C[C@H]1CCN(c2ncc3ncnc(Nc4ccc(Oc5ccn6ncnc6c5)c(Cl)c4)c3n2)C1 [Example 367]	16.5	264	64.7	≥ 5000	≥ 10000
CN(c1ncc2ncnc(Nc3ccc(Oc4ccn5ncnc5c4)c(Cl)c3)c2n1)[C@@H]1CCCOC1 [Example 368]	3.6	17.4	4.8	≥ 5000	303
Cc1cc(Nc2ncnc3cnc(N4CCC45COC5)nc23)ccc1Oc1ccn2ncnc2c1 [Example 369]	7.3	151	37.1	≥ 5000	3870
Cc1cc(Nc2ncnc3cnc(N4CC[C@H]4C(C)(C)O)nc23)ccc1Oc1ccn2ncnc2c1 [Example 370]	57.9	2500	129	≥ 5000	≥ 10000
Cc1cc(Nc2ncnc3cnc(N4CCC[C@@H]4C(C)(C)O)nc23)ccc1Oc1ccc2c(c1)ncn2C [Example 371]	67	127	492	≥ 5000	≥ 10000
Cc1cc(Nc2ncnc3cnc(N(C)CC(F)F)nc23)ccc1Oc1ccn2ncnc2c1 [Example 372]	15.1	153	70.7	≥ 5000	7310
Cc1cc(Nc2ncnc3cnc(N4CC5(CCOC5)C4)nc23)ccc1Oc1ccn2ncnc2c1 [Example 373]	81.6	2480	307	≥ 5000	≥ 10000
Cc1cc(Nc2ncnc3cnc(N4CC[C@]45CCOC5)nc23)ccc1Oc1ccn2ncnc2c1 [Example 374]	14.3	216	14.2	≥ 5000	1180
Cc1cc(Nc2ncnc3cnc(N4CC[C@]5(CCO5)C4)nc23)ccc1Oc1ccc2c(c1)ncn2C [Example 375]	22.8	14.9	34	≥ 5000	≥ 10000
Clc1cc(Nc2ncnc3cnc(N4CC[C@@H]5COC[C@H]54)nc23)ccc1Oc1ccn2ncnc2c1 [Example 376]	13.3	30.8	11.7	≥ 5000	1200
Clc1cc(Nc2ncnc3cnc(N4CCC5COCC54)nc23)ccc1Oc1ccn2ncnc2c1 (centres unmarked) [Example 377]	7.6	58.2	14.7	≥ 5000	1410
Cc1cc(Nc2ncnc3cnc(N4CCC4)nc23)ccc1Oc1ccn2ncnc2c1 [Example 379]	25.7	356	82.1	≥ 5000	≥ 10000

SMILES	IC50 [1] [nM]	IC50 [2] [nM]	IC50 (ErbB2 WT) [nM]	IC50 (EGFR wild type (EGFR WT)) [nM]	IC50 (EGFR) [nM]
Cc1cc(Nc2ncnc3cnc(N4C[C@@H]5[C@H](C4)[C@H]4CC[C@@H]5O4)nc23)ccc1Oc1ccc2c(c1)ncn2C [Example 380]	46.4	43.2	64	≥ 5000	≥ 10000
Cc1cc(Nc2ncnc3cnc(N(C)[C@H]4CCOC4)nc23)ccc1Oc1ccn2ncnc2c1 [Example 381]	15.4	265	9.4	≥ 5000	5040
Cc1cc(Nc2ncnc3cnc(N4CCOC5CC54)nc23)ccc1Oc1ccn2ncnc2c1 (centres unmarked) [Example 382]	34.5	397	68.9	≥ 5000	6010
Clc1cc(Nc2ncnc3cnc(N4CC5CCC(C4)O5)nc23)ccc1Oc1ccn2ncnc2c1 [Example 383]	56.3	4140	75.3	≥ 5000	≥ 10000
Clc1cc(Nc2ncnc3cnc(N4CCO[C@H]5C[C@H]54)nc23)ccc1Oc1ccn2ncnc2c1 [Example 384]	13.6	91.5	43	≥ 5000	4310
Cc1cc(Nc2ncnc3cnc(N(C)CC4(O)CC4)nc23)ccc1Oc1ccn2ncnc2c1 [Example 385]	18.5	183	40	≥ 5000	5150
Cc1cc(Nc2ncnc3cnc(N4CCC[C@@]5(CCO5)C4)nc23)ccc1Oc1ccc2c(c1)ncn2C [Example 386]	82.1	16.7	59.4	≥ 5000	6990
N#C[C@@H]1CCN(c2ncc3ncnc(Nc4ccc(Oc5ccn6ncnc6c5)c(Cl)c4)c3n2)C1 [Example 387]	70	163	132	≥ 5000	≥ 10000
Clc1cc(Nc2ncnc3cnc(N4C[C@H]5CC[C@@H]4CO5)nc23)ccc1Oc1ccn2ncnc2c1 [Example 389]	16.7	127	12.2	≥ 5000	≥ 10000
Cc1cc(Nc2ncnc3cnc(N4CC[C@H]4C(F)F)nc23)ccc1Oc1ccn2ncnc2c1 [Example 390]	24.8	108	44.6	≥ 5000	3980
Cc1cc(Nc2ncnc3cnc(N4C[C@]5(CCOC5)CC4=O)nc23)ccc1Oc1ccc2c(c1)ncn2C [Example 391]	94.3	143	298	≥ 5000	≥ 10000
Cc1c(Oc2ccc3c(c2)ncn3C)ccc(Nc2ncnc3cnc(N4CC[C@@H](O)C4)nc23)c1F [Example 392]	16.6	79.9	14.6	≥ 5000	≥ 10000
Cn1cnc2cc(Oc3ccc(Nc4ncnc5cnc(N6C[C@@H]7[C@@H](C#N)[C@@H]7C6)nc45)cc3Cl)ccc21 [Example 393]	63.3	43.2	237	≥ 5000	≥ 10000
CO[C@@H]1CCN(c2ncc3ncnc(Nc4ccc(Oc5ccn6ncnc6c5)c(C)c4)c3n2)C1 [Example 395]	24.6	898	57.6	≥ 5000	≥ 10000
CN(C)c1ncc2ncnc(Nc3ccc(Oc4ccn5ncnc5c4)c(Cl)c3)c2n1 [Example 396]	4.9	23.9	9.6	≥ 5000	≥ 10000
Clc1cc(Nc2ncnc3cnc(N4CCOC5(CC5)C4)nc23)ccc1Oc1ccn2ncnc2c1 [Example 398]	22.1	70.5	36.5	≥ 5000	7770
Clc1cc(Nc2ncnc3cnc(N4C[C@@H]5[C@H](C4)[C@@H]4CC[C@H]5O4)nc23)ccc1Oc1ccn2ncnc2c1 [Example 399]	28.2	192	29	≥ 5000	≥ 10000
Cc1cc(Nc2ncnc3cnc(N4CC[C@@H](C(F)F)C4)nc23)ccc1Oc1ccn2ncnc2c1 [Example 400]	8.7	218	40.7	≥ 5000	8420
